The values that follow are results of earlier work, collected in patent US9492404B2, “Compositions and methods for treatment of taupathy” (Revalesio Corporation, priority 2010, dated 2016).

The series relates to primary progressive MS. As to conditions: 943 patients with primary progressive MS.

As for Glatiramer acetate, the “progression of disability and the disease” value is “failed to halt”.
